pIC50: −log10 of the molar value.
How the values were obtained:
[1] = tested on: HCT 116 (colon) cells; experiment: Anti-cancer screen, growth inhibition (MTT); assay type: cell-based; conditions: Homo sapiens, HCT-116 cells, 48 hours of incubation
Outline: (§1)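 MTT added for 3 h at 37° C, formazan dissolved in DMSO and A570 read. A T0 plate was measured at compound addition.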

[2] = tested on: U251 (glioma) cells; experiment: Anti-cancer screen, growth inhibition (MTT); assay type: cell-based; conditions: Homo sapiens, U-251 cells, 48 hours of incubation
Outline: as §1

[3] = tested on: NCI-H460 (lung) cells; experiment: Anti-cancer screen, growth inhibition (MTT); assay type: cell-based; conditions: Homo sapiens, 48 hours of incubation
Outline: as §1

[4] = tested on: T1, HDAC (Mouse Liver Extract); experiment: HDAC inhibition assay using Boc-Lys(Ac)-AMC substrate, mouse liver enzyme; assay type: biochemical;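 for pIC50: IC50 for inhibition of HDAC activity in mouse liver extract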
T1 construct: Mouse liver enzyme (10 mg/ml) was diluted 1:6 with HDAC buffer

| GI50 [1] | GI50 [2] | GI50 [3] | HDAC Inhibition % (1 μM) [4] | HDAC Inhibition % (10 μM) [4] | pIC50 [4] | Compound |
| --- | --- | --- | --- | --- | --- | --- |
| 35 µM | 52 µM | 32 µM | 74.0% | 91.6% |  | O=C(/C=C/c1ccc(/C=C(/C(=O)NC2CC2)c2ccccc2)cc1)NCc1ccc(C(=O)NO)cc1 [Example 93, 4-(((1E)-3-(4-(3-(Cyclopropylamino)-2-phenyl-3-oxoprop-1-en-1-yl)phenyl)acrylamido)methyl)-N-hydroxybenzamide] |
| 4 µM | 15 µM | 90 µM | 97.6% | 100.0% |  | COc1ccc(/C(=C\c2ccc(/C=C/C(=O)NCc3ccc(C(=O)NO)cc3)cc2)C(=O)NC2CC2)cc1 [Example 95, 4-(((1E)-3-(4-(3-(Cyclopropylamino)-2-(4-methoxyphenyl)-3-oxoprop-1-en-1-yl)phenyl)acrylamido)methyl)-N-hydroxybenzamide] |
| 85 µM | 5 µM | > 100 µM | 100.0% | 100.0% |  | O=C(/C=C/c1ccc(/C=C(/C(=O)N2CCOCC2)c2ccc(F)cc2)cc1)NCc1ccc(C(=O)NO)cc1 [Example 96, 4-(((1E)-3-(4-(3-(Morpholino)-2-(4-fluorophenyl)-3-oxoprop-1-en-1-yl)phenyl)acrylamido)methyl)-N-hydroxybenzamide] |
| 6.5 µM | 2.3 µM | 7.5 µM | 100.0% | 100.0% | 8.60 | COc1cccc(/C(=C\c2ccc(/C=C/C(=O)NCc3ccc(C(=O)NO)cc3)cc2)C(=O)NC2CC2)c1 [Example 97, 4-(((1E)-3-(4-(3-(Cyclopropylamino)-2-(3-methoxyphenyl)-3-oxoprop-1-en-1-yl)phenyl)acrylamido)methyl)-N-hydroxybenzamide] |
| 9 µM | 18 µM | > 100 µM | 91.5% | 98.8% |  | O=C(/C=C/c1ccc(/C=C(/C(=O)N2CCOCC2)c2ccccc2F)cc1)NCc1ccc(C(=O)NO)cc1 [Example 98, 4-(((1E)-3-(4-(3-(Morpholino)-2-(2-fluorophenyl)-3-oxoprop-1-en-1-yl)phenyl)acrylamido)methyl)-N-hydroxybenzamide] |
| 32 µM | 12 µM | 66 µM | 40.2% | 59.0% |  | Cc1ccc(/C(=C\c2ccc(C(=O)NO)cc2)C(=O)NC2CC2)cc1 [Example 99, 4-(3-(Cyclopropylamino)-2-(4-methylphenyl)-3-oxoprop-1-en-1-yl)-N-hydroxy benzamide] |
| 17 µM | 19 µM | 48 µM | 50.1% | 80.4% |  | O=C(NC1CC1)/C(=C/c1ccc(C(=O)NO)cc1)c1ccccc1 [Example 102, 4-(3-(Cyclopropylamino)-2-phenyl-3-oxoprop-1-en-1-yl)-N-hydroxybenzamide] |
| 6 µM | 7 µM | 5 µM | 44.7% | 58.4% |  | Cc1ccc(/C(=C\c2ccc(C(=O)Nc3ccccc3N)cc2)C(=O)NC2CC2)cc1 [Example 104, N-(2-Aminophenyl)-4-(3-(cyclopropylamino)-2-(4-methylphenyl)-3-oxoprop-1-en-1-yl)benzamide] |
| 4 µM | 15 µM | 20 µM | 35.8% | 42.9% |  | Nc1ccccc1NC(=O)c1ccc(C=C(C(=O)NC2CC2)c2ccc(C(F)(F)F)cc2)cc1 [Example 106, N-(2-Aminophenyl)-4-(3-(cyclopropylamino)-2-(4-trifluoromethylphenyl)-3-oxoprop-1-en-1-yl)benzamide] |
| > 100 µM | 82 µM | 80 µM | 39.1% | 61.7% |  | COc1cccc(/C(=C\c2ccc(C(=O)Nc3ccccc3N)cc2)C(=O)NC2CC2)c1 [Example 108, N-(2-Aminophenyl)-4-(3-(cyclopropylamino)-2-(3-methoxyphenyl)-3-oxoprop-1-en-1-yl)benzamide] |
| 4.1 µM | 21 µM | 6.5 µM | 35.8% | 66.8% |  | Nc1ccccc1NC(=O)c1ccc(/C=C(/C(=O)NC2CC2)c2ccccc2F)cc1 [Example 109, N-(2-Aminophenyl)-4-(3-(cyclopropylamino)-2-(2-fluorophenyl)-3-oxoprop-1-en-1-yl)benzamide] |
| 11 µM | 20 µM | 25 µM | 34.6% | 51.8% |  | Nc1ccccc1NC(=O)c1ccc(/C=C(/C(=O)NC2CC2)c2cccs2)cc1 [Example 113, N-(2-Aminophenyl)-4-(3-(cyclopropylamino)-2-(thiophen-2-yl)-3-oxoprop-1-en-1-yl)benzamide] |
| 68 µM | 3.8 µM | 10 µM | 36.2% | 66.6% |  | Nc1ccccc1NC(=O)c1ccc(/C=C(/C(=O)NC2CC2)c2ccc(F)cc2Cl)cc1 [Example 117, N-(2-Aminophenyl)-4-(3-(cyclopropylamino)-2-(2-chloro-4-fluorophenyl)-3-oxoprop-1-en-1-yl)benzamide] |
| 10 µM | 4.2 µM | 90 µM | 21.0% | 46.0% |  | COc1ccc(/C(=C\c2ccc(C(=O)Nc3ccccc3N)cc2)C(=O)Nc2ccccc2)cc1OC [Example 118, N-(2-Aminophenyl)-4-(3-(phenylamino)-2-(3,4-dimethoxyphenyl)-3-oxoprop-1-en-1-yl)benzamide] |
| 32 µM | 18 µM | 28 µM | 28.9% | 33.9% |  | COc1ccc(/C(=C\c2ccc(C(=O)Nc3ccccc3N)cc2)C(=O)NC2CC2)cc1OC [Example 119, N-(2-Aminophenyl)-4-(3-(cyclopropylamino)-2-(3,4-dimethoxyphenyl)-3-oxoprop-1-en-1-yl)benzamide] |
| 10.5 µM | 10 µM | 21 µM | 36.9% | 59.3% |  | COc1ccc(/C(=C\c2ccc(C(=O)Nc3ccccc3N)cc2)C(=O)NC2CC2)c(OC)c1 [Example 120, N-(2-Aminophenyl)-4-(3-(cyclopropylamino)-2-(2,4-dimethoxyphenyl)-3-oxoprop-1-en-1-yl)benzamide] |
| 1.7 µM | 9 µM | 3.1 µM | 35.0% | 63.5% |  | Nc1ccccc1NC(=O)c1ccc(/C=C(/C(=O)NC2CC2)c2ccc3ccccc3c2)cc1 [Example 121, N-(2-Aminophenyl)-4-(3-(cyclopropylamino)-2-(2-naphthyl)-3-oxoprop-1-en-1-yl)benzamide] |
| 2.6 µM | 50 µM | 11 µM | 28.9% | 54.1% |  | COc1ccc(/C(=C\c2ccc(C(=O)Nc3ccccc3N)cc2)C(=O)Nc2ccccc2)c(OC)c1 [Example 122, N-(2-Aminophenyl)-4-(3-phenylamino-2-(2,4-dimethoxyphenyl)-3-oxoprop-1-en-1-yl)benzamide] |
| 2 µM | 2.6 µM | 4.5 µM | 34.7% | 63.2% |  | Nc1ccccc1NC(=O)c1ccc(/C=C(/C(=O)NC2CC2)c2c[nH]c3ccccc23)cc1 [Example 124, N-(2-Aminophenyl)-4-(3-(cyclopropylamino)-3-oxo-2-(1H-indol-3-yl)prop-1-en-1-yl)benzamide] |
| 3.6 µM | 20 µM | 35 µM | 31.5% | 45.4% |  | Nc1ccccc1NC(=O)c1ccc(/C=C(/C(=O)NC2CC2)c2ccc(-c3ccccc3)cc2)cc1 [Example 125, N-(2-Aminophenyl)-4-(3-(cyclopropylamino)-3-oxo-2-biphenyl-4-yl-prop-1-en-1-yl)benzamide] |
| 14 µM | 22 µM | 40 µM | 36.9% | 53.9% |  | O=C(NC1CC1)C(=Cc1ccc(C(=O)Nc2ccccc2O)cc1)c1ccc(F)cc1 [Example 126, 4-(2-(4-Fluorophenyl)-3-(cyclopropylamino)-3-oxoprop-1-en-1-yl)-N-(2-hydroxyphenyl)benzamide] |
| 22 µM | 40 µM | 12 µM | 36.9% | 55.4% |  | Nc1ccccc1NC(=O)c1ccc(/C=C(/C(=O)NC2CC2)c2cccnc2)cc1 [Example 127, N-(2-Aminophenyl)-4-[3-(cyclopropylamino)-3-oxo-2-pyridin-3-yl-prop-1-en-1-yl]benzamide] |
| 24 µM | 28 µM | 26 µM | 31.8% | 55.1% |  | Nc1ccccc1NC(=O)c1ccc(/C=C(/C(=O)NC2CC2)c2ccc(O)cc2)cc1 [Example 128, N-(2-Aminophenyl)-4-(2-(4-hydroxyphenyl)-3-(cyclopropylamino)-3-oxoprop-1-en-1-yl)benzamide] |
| 3.5 µM | 22 µM | 12 µM | 30.0% | 54.6% |  | Nc1ccccc1NC(=O)c1ccc(/C=C(/C(=O)NC2CC2)c2c(F)cccc2F)cc1 [Example 129, N-(2-Aminophenyl)-4-(2-(2,6-difluorophenyl)-3-(cyclopropylamino)-3-oxoprop-1-en-1-yl)benzamide] |
